Data reported in patent US6391921B1 (priority 2000, dated 2002).

Legend:
[1] = system: HaCaT cells; assay: PGE2 release from UVB-irradiated HaCaT cells; type: cell-based, human; settings: 20 mJ/cm^2 UVB, 24 hours post irradiation; FIG. 5
Source text: A bank of 8-FSX24T12/HO/UVB lamps (National Biological Corporation, Twinsburg, Ohio) that emit light predominantly in the UVB range (280-320 nm) was used to irradiate the cell cultures. The performance of the UVB lamps was always confirmed before irradiation using a UVB meter (model-500C obtained from National Biological Corporation, Twinsburg, Ohio). The dose of UVB light used to irradiate cell cultures was 20 mJ/cm^2. Confluent HaCaT cells cultured in 24-well culture dishes were washed three times with serum-free DMEM containing 1% BSA and incubated with indicated concentrations of compound D-58 for 1 hour at 37° C. […] Compound D-58 was readministered after irradiation and the cells were incubated for another 24 hours at 37° C. The cell supernatants were collected and their PGE2 concentration was measured by ELISA. The protein contents of the cell pellets were determined using the Pierce BCA protein assay method.
One of the major arachidonic acid metabolites in UVB-irradiated epidermal cells is prostaglandin E2 (PGE2), which induces edema and erythema in skin (refs 34 and 35). PGE2 release can be detected as early as 6 hours and peaks between 24-48 hours following UVB exposure. […]
To summarize, confluent monolayers of the human epidermal cell line HaCaT were either irradiated with UVB (20 mJ/cm^2) or sham irradiated. […] The drug was readministered after UVB exposure. […]

[2] = system: RBL-2H3 mast cells; assay: Ionomycin or thapsigargin induced calcium mobilization in mast cells; type: cell-based, rat; settings: 30 μM compound for 20 minutes, FIG. 2B
Source text: An alternative mechanism for the cells to maintain low cytosolic calcium levels is the activation of cell plasma membrane calcium ATPase or calcium pump (refs 32 and 33). Therefore, the effect of compound D-58 on ionophore and thapsigargin induced calcium mobilization also was studied. Ionomycin takes extracellular calcium inside the cells, and bypasses most of the signal transduction events, whereas thapsigargin inhibits endoplasmic reticulum calcium pump, and selectively depletes IP3-sensitive storage resulting in an increase in the cytosolic calcium levels (ref 33). In summary, IgE-sensitized RBL-2H3 cells were treated with 30 μM compound D-58 for 20 minutes and challenged with DNP-BSA (20 ng/ml). The cells were then stimulated with either ionomycin (1 μM), or thapsigargin (2 μM). The arrows indicate the time points at which the cells were exposed to the agents.
The fluorescent Ca^2+ indicator, fluo-3/AM (Molecular Probes) was used to detect Ca^2+ mobilizations in individual cells (ref 25). Briefly, the IgE sensitized monolayers of mast cells were incubated with 1 μM fluo-3/AM at 37° C. for 30 minutes. After incubation the cells were washed twice and 1 ml PIPES buffer was added to the wells. […] The image acquisition and fluorescence intensity analysis were controlled by the software MetaFluor (Universal Imaging Co.). The background fluorescence was subtracted from each image.

[3] = target: T1, BTK (Homo sapiens, UniProt Q06187); assay: BTK tyrosine kinase assay; type: biochemical; settings: 1 hour exposure
T1 construct: made in house; host or cells: Sf21 insect cells (baculovirus)
Description: Sf21 (IPLB-SF21-AE) cells derived from the ovarian tissue of the fall armyworm Spodotera frugiperda, were obtained from Invitrogen and maintained at 26-28° C. in Grace's insect cell medium supplemented with 10% FBS and 1.0% antibiotic/antimycotic (GIBCO-BRL). Stock cells were maintained in suspension at 0.2-1.6×10^6/ml in 600 ml total culture volume in 1 L Bellco spinner flasks at 60-90 rpm. Cell viability was maintained at 95-100% as determined by trypan blue dye exclusion.
Sf21 cells were infected with a baculovirus expression vector for BTK or SYK, as previously described (refs 18 and 19). […]
Following electrophoresis, kinase gels were dried onto Whatman 3M filter paper and subjected to phosphoimaging on a Molecular Imager (Bio-Rad, Hercules, Calif.) as well as autoradiography on film. […] For each drug concentration, a BTK or SYK kinase activity index was determined by comparing the ratios of the kinase activity in phosphorimager units (PIU) and density of the protein bands in densitometric scanning units (DSU) to those of the baseline sample and using the formula: Activity Index=[PIU of kinase band/DSU of BTK/SYK protein band]test sample: [PIU of kinase band/DSU of BTK/SYK protein band]baseline control sample.

T1 sequence (Q06187 whole entry, species assumed): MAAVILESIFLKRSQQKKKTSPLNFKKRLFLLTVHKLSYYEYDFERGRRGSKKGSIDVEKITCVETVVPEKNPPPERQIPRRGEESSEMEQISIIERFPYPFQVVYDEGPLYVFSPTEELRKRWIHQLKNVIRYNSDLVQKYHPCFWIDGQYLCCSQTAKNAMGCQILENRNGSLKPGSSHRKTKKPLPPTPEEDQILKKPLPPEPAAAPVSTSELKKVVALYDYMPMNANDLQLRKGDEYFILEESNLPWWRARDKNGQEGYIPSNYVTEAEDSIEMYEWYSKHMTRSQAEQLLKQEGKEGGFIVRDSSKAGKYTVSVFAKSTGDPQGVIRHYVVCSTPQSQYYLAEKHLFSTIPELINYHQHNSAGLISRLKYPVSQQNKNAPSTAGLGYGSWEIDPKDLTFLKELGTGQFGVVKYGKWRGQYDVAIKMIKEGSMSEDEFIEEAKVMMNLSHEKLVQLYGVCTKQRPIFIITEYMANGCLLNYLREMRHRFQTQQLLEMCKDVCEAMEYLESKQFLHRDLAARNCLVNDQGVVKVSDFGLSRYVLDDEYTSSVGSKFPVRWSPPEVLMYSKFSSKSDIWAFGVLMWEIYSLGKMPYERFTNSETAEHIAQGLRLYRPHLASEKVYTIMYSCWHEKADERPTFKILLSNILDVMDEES

## COc1ccc(CC(=O)c2c(O)cc(O)cc2O)cc1 [Compound D-58]
[1]
  PGE2 release from UVB irradiated cells: inhibited the PGE2 release
[2]; 1 μM ionomycin
  calcium response induced by ionomycin: did not inhibit
[2]; 2 μM thapsigargin
  calcium response induced by thapsigargin: did not inhibit
[3]; first experiment, FIG. 1A
  IC50: 18.6 µM
[3]; second experiment, FIG. 1C
  IC50: 35.5 µM
